Values after ≈ are worked out from the molar mass of the structure shown.
Assays:
[1] = tested on: Trypanosoma brucei rhodesiense; assay: Antitrypanosomal activity against Trypanosoma brucei rhodesiense after 72 hrs by Alamar blue assay; type: functional, organism-based
Trypanosoma cruzi = assay: Antitrypanosomal activity against Trypanosoma cruzi after 72 hrs; type: functional, organism-based
Leishmania donovani = assay: Antileishmanial activity against Leishmania donovani after 72 hrs by Alamar blue assay; type: functional, organism-based
Plasmodium falciparum = assay: Antimalarial activity against chloroquine-resistant, pyrimethamine-resistant Plasmodium falciparum K1 after 48 hrs; type: functional, organism-based; conditions: K1, 48 h
L6 = assay: Cytotoxicity against rat L6 cells after 72 hrs; type: cell-based; conditions: L6, 72 h
[2] = target: T1, Enoyl-acyl-carrier protein reductase (Plasmodium falciparum, UniProt Q965D5); assay: Inhibition of Plasmodium falciparum FabI
T1 sequence (Q965D5 whole entry): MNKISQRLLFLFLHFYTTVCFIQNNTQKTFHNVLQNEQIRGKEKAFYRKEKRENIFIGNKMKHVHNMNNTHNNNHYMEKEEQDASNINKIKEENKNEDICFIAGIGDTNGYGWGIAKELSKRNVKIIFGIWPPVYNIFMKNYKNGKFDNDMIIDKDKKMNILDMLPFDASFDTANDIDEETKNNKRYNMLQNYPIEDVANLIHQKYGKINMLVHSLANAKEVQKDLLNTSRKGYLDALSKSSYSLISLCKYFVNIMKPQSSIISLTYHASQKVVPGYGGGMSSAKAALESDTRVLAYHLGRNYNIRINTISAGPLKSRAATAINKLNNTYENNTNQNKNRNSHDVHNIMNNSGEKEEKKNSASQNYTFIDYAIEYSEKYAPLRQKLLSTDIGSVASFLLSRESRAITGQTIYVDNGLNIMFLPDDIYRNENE

[3] = target: T1, Enoyl-acyl-carrier protein reductase; assay: Inhibition of Plasmodium falciparum FabI in presence of variable crotonyl-coA level
[4] = target: T1, Enoyl-acyl-carrier protein reductase; assay: Inhibition of Plasmodium falciparum FabI in presence of variable NADH levels

Structure (SMILES) | IC50 [1] | IC50 (Trypanosoma cruzi) | IC50 (Leishmania donovani) | IC50 (Plasmodium falciparum) | IC50 (L6) | IC50 [2] | Ki [3] | Ki [4]
CC[C@@H](CC[C@@H](C)[C@H]1CC[C@H]2C3=CC[C@H]4C[C@@H](O)CC[C@]4(C)[C@H]3CC[C@]12C)C(C)C | 14.2 µg/mL (≈ 34.2 µM) | > 30 µg/mL | 29.5 µg/mL (≈ 71.1 µM) | 16.1 µg/mL (≈ 38.8 µM) | > 90 µg/mL | 43.4 µM |  | 
O=C(O)C(F)(F)F.O=C(O)c1cc(Br)c(Br)[nH]1 | 25.2 µg/mL | > 30 µg/mL | 5.8 µg/mL | 49.9 µg/mL | > 90 µg/mL | 104 µM |  | 
NC/C=C/c1cnc(N)[nH]1 | 2.4 µg/mL (≈ 17.4 µM) | 2.5 µg/mL (≈ 18.1 µM) | 13.1 µg/mL (≈ 94.8 µM) | 7.4 µg/mL (≈ 53.6 µM) | 0.7 µg/mL (≈ 5.07 µM) | > 724 µM |  | 
COC(=O)c1cc(Br)c(Br)[nH]1 | 13.3 µg/mL (≈ 47 µM) | > 30 µg/mL | > 30 µg/mL | > 50 µg/mL | > 90 µg/mL | > 353 µM |  | 
O=C(O)c1cc(Br)c(Br)[nH]1 | 20.9 µg/mL (≈ 77.7 µM) | > 30 µg/mL | 7.9 µg/mL (≈ 29.4 µM) | > 50 µg/mL | > 90 µg/mL | > 372 µM |  | 
O=C(Cn1ccnc1[N+](=O)[O-])NCc1ccccc1 [BENZNIDAZOLE] |  | 0.17 µg/mL (≈ 0.653 µM) |  |  |  |  |  | 
Nc1nc(N)nc(Nc2ccc([As]3SCC(CO)S3)cc2)n1 (centres undefined) [MELARSOPROL] | 0.0027 µg/mL |  |  |  |  |  |  | 
Nc1ncc(/C=C/CNC(=O)c2cc(Br)c(Br)[nH]2)[nH]1.O=C(O)C(F)(F)F [OROIDIN TFA SALT] | 12.2 µg/mL | > 30 µg/mL | 15.4 µg/mL | 7.9 µg/mL | 76.4 µg/mL | 9.94 µM |  | 
Nc1ncc(/C=C/CNC(=O)c2cc(Br)c(Br)[nH]2)[nH]1 [OROIDIN] | 17.3 µg/mL (≈ 44.5 µM) | > 30 µg/mL | > 30 µg/mL | 3.9 µg/mL (≈ 10 µM) | 88.6 µg/mL (≈ 228 µM) | 0.771 µM | 0.4 µM | 0.8 µM
COc1cc([C@@H]2c3cc4c(cc3[C@H](O)[C@H]3COC(=O)[C@H]23)OCO4)cc(OC)c1OC [PODOFILOX] |  |  |  |  | 0.009 µg/mL (≈ 0.0217 µM) |  |  | 
NCCS(=O)(=O)O [TAURINE] | 83.4 µg/mL (≈ 666 µM) | > 30 µg/mL | > 30 µg/mL | > 50 µg/mL | > 90 µg/mL | > 799 µM |  | 
Oc1cc(Cl)ccc1Oc1ccc(Cl)cc1Cl [TRICLOSAN] |  |  |  |  |  | 0.0484 µM |  | 

Reference: ChEMBL document CHEMBL1139805, “Marine natural products from the Turkish sponge Agelas oroides that inhibit the enoyl reductases from Plasmodium falciparum, Mycobacterium tuberculosis and Escherichia coli” (Bioorg Med Chem, 2007)
